{"source": "patent US20100173935A1", "about": "“Muscarinic Receptor Agonists that are Effective in the Treatment of Pain, Alzheimer's Disease and Schizophrenia” (AstraZeneca AB, priority 2006, published 2010)", "type_in_all_cases": "cell-based", "key": {"[1]": {"target": "T1, hM5 (human Muscarinic receptor subtype 5) (Homo sapiens, UniProt P08912)", "T1 construct": "expressed in transfected cells; host or cells: CHO cells (ATCC)", "T1 sequence (P08912 1-532)": "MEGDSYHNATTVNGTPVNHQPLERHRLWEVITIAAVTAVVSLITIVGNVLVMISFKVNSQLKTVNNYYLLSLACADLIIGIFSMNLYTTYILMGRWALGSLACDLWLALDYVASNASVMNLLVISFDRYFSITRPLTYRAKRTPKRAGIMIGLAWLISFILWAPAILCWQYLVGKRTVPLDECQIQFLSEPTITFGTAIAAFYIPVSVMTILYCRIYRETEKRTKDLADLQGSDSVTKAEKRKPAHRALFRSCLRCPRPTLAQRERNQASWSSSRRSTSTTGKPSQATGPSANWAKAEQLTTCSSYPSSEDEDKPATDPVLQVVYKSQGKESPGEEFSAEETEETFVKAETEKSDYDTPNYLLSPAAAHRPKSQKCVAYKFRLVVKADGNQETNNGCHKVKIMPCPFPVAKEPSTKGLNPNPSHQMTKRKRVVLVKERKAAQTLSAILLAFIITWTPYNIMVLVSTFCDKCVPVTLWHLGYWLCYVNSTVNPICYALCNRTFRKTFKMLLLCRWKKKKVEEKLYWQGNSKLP", "test": "Human M5 calcium mobilization FLIPR assay", "conditions": "CHO cells expressing hM5, Ca2+ release", "description": "(§1) The compound activity in the present invention (EC50 or IC50) was measured using a 384 plate-based imaging assay that monitors drug induced intracellular Ca^2+ release in whole cells. Activation of hM1 (human Muscarinic receptor subtype 1, gene bank access NM_000738), rM1 (rat Muscarinic receptor subtype 1, gene bank access NM_080773), hM3 (human Muscarinic receptor subtype 3, gene bank access NM_000740NM_000740) and hM5 (human Muscarinic receptor subtype 5, gene bank access NM_0121258), receptors expressed in CHO cells (chinese hamster ovary cells, ATCC) was quantified in a Molecular Devices FLIPR II™ instrument as an increase in fluorescent signal. Inhibition of hM3 and hM5 by compounds was determined by the decrease in fluorescent signal in response to 20 nM carbachol activation.\n(§2) CHO cells were plated in 384-black polylysine coated plate (Costar) at 8000 cells/well/50 μl for 24 hours or 4000 cells/well for 48 hours in a humidified incubator (5% CO2 and 37° C.) in DMEM/F12 medium without selection agent. Prior to the experiment the cell culture medium was removed from the plates by inversion. A loading solution of 30 μl of Hank's balanced salt solution, 10 mM Hepes and 2.5 mM Probenicid at Ph 7.4 (Cat no. 311-520-VL, Wisent) with 2 μM calcium indicator dye (FLUO-3AM, Molecular Probes F14202) was added to each well. Plates were incubated at 37° C. for 60 minutes prior to start the experiment. The incubation was terminated by washing the cells four times in assay buffer, leaving a residual 25 μl buffer per well. Cell plates were then transferred to the FLIPR, ready for compound additions.\n(§3) The day of experiment, carbachol and compounds were diluted in three-fold concentration range (10 points serial dilution) for addition by FLIPR instrument. For all calcium assays, a baseline reading was taken for 30 seconds followed by the addition of 12.5 μl (25 μl for hM1 and rM1) of compounds, resulting in a total well volume of 37.5 μl (50 μl for hM1 and rM1). Data were collected every 1.6 seconds for 300 seconds. For hM3 and hM5 an additional 12.5 μl of carbachol (20 nM final) was added at 300 seconds. After this addition of carbachol (producing a final volume of 50 μl), the FLIPR continued to collect data every 2 seconds for 240 seconds. The fluorescence emission was read using filter 1 (emission 520-545 nm) by the FLIPR on board CCD camera.\n(§4) Calcium mobilization output data were calculated as the maximal relative fluorescence unit (RFU) minus the minal value for both compound and agonist reading frame (except for hM1 and rM1 using only the maximal RFU). Data were analyzed using sigmoidal fits of a non-linear curve-fitting program (XLfit version 5.0.6 from ID Business Solutions Limited, Guildford, UK). All EC50 and IC50 values are reported as arithmetic means±standard error of mean of ‘n’ independent experiments."}, "[2]": {"target": "T2, hM1 (human Muscarinic receptor subtype 1) (Homo sapiens, UniProt P11229)", "T2 construct": "expressed in transfected cells; host or cells: CHO cells (ATCC)", "T2 sequence (P11229 1-460)": "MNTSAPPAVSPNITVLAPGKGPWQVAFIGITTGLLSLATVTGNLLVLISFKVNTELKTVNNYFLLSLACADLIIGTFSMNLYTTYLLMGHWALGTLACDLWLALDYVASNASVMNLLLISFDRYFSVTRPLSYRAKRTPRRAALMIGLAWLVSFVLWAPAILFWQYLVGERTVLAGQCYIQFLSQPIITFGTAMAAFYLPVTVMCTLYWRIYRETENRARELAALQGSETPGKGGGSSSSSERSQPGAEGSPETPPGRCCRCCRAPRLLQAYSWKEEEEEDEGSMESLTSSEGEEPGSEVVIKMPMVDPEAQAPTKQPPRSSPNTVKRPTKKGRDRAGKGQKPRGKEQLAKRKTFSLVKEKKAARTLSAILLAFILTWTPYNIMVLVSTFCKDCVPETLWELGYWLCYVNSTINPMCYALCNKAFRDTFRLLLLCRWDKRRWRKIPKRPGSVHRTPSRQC", "test": "Human M1 calcium mobilization FLIPR assay", "conditions": "CHO cells expressing hM1, Ca2+ release", "description": "as §1, §2, §3, §4"}, "[3]": {"target": "T3, hM3 (human Muscarinic receptor subtype 3) (Homo sapiens, UniProt P20309)", "T3 construct": "expressed in transfected cells; host or cells: CHO cells (ATCC)", "T3 sequence (P20309 whole entry)": "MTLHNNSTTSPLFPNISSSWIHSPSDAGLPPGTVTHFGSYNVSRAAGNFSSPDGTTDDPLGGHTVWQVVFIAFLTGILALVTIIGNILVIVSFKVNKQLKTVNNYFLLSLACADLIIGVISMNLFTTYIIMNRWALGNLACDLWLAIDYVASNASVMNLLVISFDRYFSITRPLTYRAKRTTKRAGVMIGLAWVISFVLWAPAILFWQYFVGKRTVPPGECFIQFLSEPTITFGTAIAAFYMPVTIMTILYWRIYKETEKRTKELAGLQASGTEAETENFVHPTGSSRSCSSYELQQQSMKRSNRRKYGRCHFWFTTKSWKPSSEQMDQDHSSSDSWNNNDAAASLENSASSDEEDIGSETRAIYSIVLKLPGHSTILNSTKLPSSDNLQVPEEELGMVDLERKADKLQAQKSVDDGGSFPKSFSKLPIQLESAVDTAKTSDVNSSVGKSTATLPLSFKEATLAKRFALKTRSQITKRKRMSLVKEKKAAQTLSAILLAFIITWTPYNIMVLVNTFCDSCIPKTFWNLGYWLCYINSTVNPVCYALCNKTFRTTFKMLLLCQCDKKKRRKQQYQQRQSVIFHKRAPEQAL", "test": "Human M3 calcium mobilization FLIPR assay", "conditions": "CHO cells expressing hM3, Ca2+ release", "description": "as §1, §2, §3, §4"}}, "data": [{"smiles": "CCOC(=O)N1CC[C@H](N2CCC(n3c(=O)[nH]c4ccc(F)cc43)CC2)C1", "note": "(single isomer, unassigned) [Example 35]", "values": [{"measurement": "EC50", "setting": "[1]", "value": 905, "unit": "nM"}, {"measurement": "EC50", "setting": "[2]", "value": 4.5, "unit": "nM"}, {"measurement": "EC50", "setting": "[3]", "value": 5960, "unit": "nM"}]}, {"smiles": "CCOC(=O)N1CC[C@@H](N2CCC(n3c(=O)[nH]c4ccc(F)cc43)CC2)C1", "note": "(single isomer, unassigned) [Example 36]", "values": [{"measurement": "EC50", "setting": "[1]", "value": "> 40000", "unit": "nM"}, {"measurement": "EC50", "setting": "[2]", "value": 40.8, "unit": "nM"}, {"measurement": "EC50", "setting": "[3]", "value": "> 40000", "unit": "nM"}]}, {"smiles": "CCOC(=O)N1CCC(N2CCC(C3C(=O)Nc4ccccc43)CC2)C1", "note": "(centres unmarked) [Example 13, Ethyl 3-[4-(2-oxo-2,3-dihydro-1H-indol-3-yl)piperidin-1-yl]pyrrolidine-1-carboxylate]", "values": [{"measurement": "EC50", "setting": "[1]", "value": "> 40000", "unit": "nM"}, {"measurement": "EC50", "setting": "[2]", "value": 113, "unit": "nM"}, {"measurement": "EC50", "setting": "[3]", "value": "> 40000", "unit": "nM"}]}, {"smiles": "CCOC(=O)N1CC[C@@H](N2CCC(n3c(=O)[nH]c4ccccc43)CC2)C1", "note": "[Example 16, Ethyl (3R)-3-[4-(2-oxo-2,3-dihydro-1H-benzimidazol-1-yl)piperidin-1-yl]pyrrolidine-1-carboxylate]", "values": [{"measurement": "EC50", "setting": "[1]", "value": "> 40000", "unit": "nM"}, {"measurement": "EC50", "setting": "[2]", "value": 130, "unit": "nM"}, {"measurement": "EC50", "setting": "[3]", "value": "> 40000", "unit": "nM"}]}, {"smiles": "O=C(C1CCCC1)N1CC[C@H](N2CCC(n3c(=O)[nH]c4ccccc43)CC2)C1", "note": "[Example 19, 1-{1-[(3S)-1-(cyclopentylcarbonyl)pyrrolidin-3-yl]piperidin-4-yl}-1,3-dihydro-2H-benzimidazol-2-one]", "values": [{"measurement": "EC50", "setting": "[1]", "value": 833, "unit": "nM"}, {"measurement": "EC50", "setting": "[2]", "value": 9.6, "unit": "nM"}, {"measurement": "EC50", "setting": "[3]", "value": 2080, "unit": "nM"}]}, {"smiles": "O=C1CCCN1CCCC(=O)N1CC[C@H](N2CCC(n3c(=O)[nH]c4ccccc43)CC2)C1", "note": "[Example 22, 1-(1-{(3S)-1-[4-(2-oxopyrrolidin-1-yl)butanoyl]pyrrolidin-3-yl}piperidin-4-yl)-1,3-dihydro-2H-benzimidazol-2-one]", "values": [{"measurement": "EC50", "setting": "[2]", "value": 37.9, "unit": "nM"}]}, {"smiles": "Cn1c(=O)n(C2CCN([C@H]3CCN(C(=O)CCN4CCCC4=O)C3)CC2)c2ccccc21", "note": "[Example 24, 1-methyl-3-(1-{(3S)-1-[3-(2-oxopyrrolidin-1-yl)propanoyl]pyrrolidin-3-yl}piperidin-4-yl)-1,3-dihydro-2H-benzimidazol-2-one]", "values": [{"measurement": "EC50", "setting": "[1]", "value": "> 40000", "unit": "nM"}, {"measurement": "EC50", "setting": "[2]", "value": 203, "unit": "nM"}, {"measurement": "EC50", "setting": "[3]", "value": "> 40000", "unit": "nM"}]}, {"smiles": "CCOC(=O)N1CC[C@H](N2CCC(N3C(=O)Cc4ccccc43)CC2)C1", "note": "[Example 26, Ethyl (3S)-3-[4-(2-oxo-2,3-dihydro-1H-indol-1-yl)piperidin-1-yl]pyrrolidine-1-carboxylate]", "values": [{"measurement": "EC50", "setting": "[1]", "value": 341, "unit": "nM"}, {"measurement": "EC50", "setting": "[2]", "value": 30.8, "unit": "nM"}, {"measurement": "EC50", "setting": "[3]", "value": "> 40000", "unit": "nM"}]}, {"smiles": "O=C1CCCN1CCC(=O)N1CC[C@H](N2CCC(N3C(=O)Cc4ccccc43)CC2)C1", "note": "[Example 29, 1-(1-{(3S)-1-[3-(2-oxopyrrolidin-1-yl)propanoyl]pyrrolidin-3-yl}piperidin-4-yl)-1,3-dihydro-2H-indol-2-one]", "values": [{"measurement": "EC50", "setting": "[1]", "value": 708, "unit": "nM"}, {"measurement": "EC50", "setting": "[2]", "value": 3.5, "unit": "nM"}, {"measurement": "EC50", "setting": "[3]", "value": 2500, "unit": "nM"}]}, {"smiles": "CCOC(=O)N1CC[C@H](N2CCC(n3c(=O)[nH]c4ccc(C#N)cc43)CC2)C1", "note": "[Example 41, Ethyl (3S)-3-[4-(6-cyano-2-oxo-2,3-dihydro-1H-benzimidazol-1-yl)piperidin-1-yl]pyrrolidine-1-carboxylate]", "values": [{"measurement": "EC50", "setting": "[1]", "value": 534, "unit": "nM"}, {"measurement": "EC50", "setting": "[2]", "value": 3.4, "unit": "nM"}, {"measurement": "EC50", "setting": "[3]", "value": 2680, "unit": "nM"}]}, {"smiles": "CCOC(=O)N1CC[C@H](N2CCC(n3c(=O)[nH]c4ccc(Cl)cc43)CC2)C1", "note": "[Example 42, Ethyl (3S)-3-[4-(6-chloro-2-oxo-2,3-dihydro-1H-benzimidazol-1-yl)piperidin-1-yl]pyrrolidine-1-carboxylate]", "values": [{"measurement": "EC50", "setting": "[2]", "value": 3, "unit": "nM"}]}]}
